Here are results for eleven compounds from PubChem BioAssay (NCI).

Values joined by “and” are separate entries in the source; they are usually repeats but may differ in a detail not shown here. Equal entries are not always repeated.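 Five compound concentrations were applied to cells in 96-well plates for 48 hours; endpoints were derived by simple linear interpolation of the resulting dose-response curve. The concentration for 50% growth inhibition is given as GI50. TGI denotes the concentration required for complete inhibition of growth.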

Among the test systems are SF-539 CNS; LOX IMVI melanoma; ACHN renal; NCI/ADR-RES ovarian; OVCAR-3 ovarian; OVCAR-5 ovarian; HCT-116 colon; SF-268 CNS; SK-MEL-2 melanoma; DU-145 prostate.
Holding throughout (assay): NCI-60 cell line screen, 48 h

In the case of `C[C@@]12C=CC3C/C(=N\C(N)=S)C=C(CCCC4OCCO4)[C@]3(CC1)C2` (stereo partly specified), the TGI came to 31.7 µM with SF-539 CNS; 31.1 µM with LOX IMVI melanoma; 92.2 µM in the experiment with ACHN renal; 54.3 µM in the experiment with NCI/ADR-RES ovarian; 39.3 µM in the experiment with OVCAR-3 ovarian; 33.3 µM in the experiment with OVCAR-5 ovarian. Besides, the TGI amounted to 26.8 µM in the experiment with HCT-116 colon, 87.8 µM in the experiment with SF-268 CNS, 30.6 µM in the experiment with SK-MEL-2 melanoma and 78.6 µM in the experiment with DU-145 prostate.
On to `CCOC(=O)NC(C(F)(F)F)(C(F)(F)F)P(=O)(OC(C)C)OC(C)C`, for which the TGI in the experiment with SF-539 CNS, in the experiment with LOX IMVI melanoma, with ACHN renal, in the experiment on NCI/ADR-RES ovarian, with OVCAR-3 ovarian and with OVCAR-5 ovarian was above 100 µM in each case. Moreover, the TGI with HCT-116 colon, in the experiment on SF-268 CNS, with SK-MEL-2 melanoma and with DU-145 prostate was above 100 µM in each case.
For the compound `CC1=NC(=O)C(C)(c2ccccc2)N1CCc1ccccc1` (stereo unspecified), the TGI in the experiment on SF-539 CNS, in the experiment on LOX IMVI melanoma, with ACHN renal, in the experiment on NCI/ADR-RES ovarian, with OVCAR-3 ovarian and in the experiment with OVCAR-5 ovarian was above 100 µM in each case. The TGI in the experiment with HCT-116 colon, with SF-268 CNS, in the experiment on SK-MEL-2 melanoma and with DU-145 prostate was above 100 µM each time.
On to `O=C1c2cc3c(cc2CC12Cc1cc4c(cc1C2=O)CCCC4)CCCC3`, for which the TGI in the experiment with SF-539 CNS is above 100 µM; in the experiment on LOX IMVI melanoma, above 100 µM; with ACHN renal, above 100 µM; in the experiment on NCI/ADR-RES ovarian, above 100 µM; with OVCAR-3 ovarian, 93.7 µM; with OVCAR-5 ovarian, above 100 µM. In addition, the TGI in the experiment with HCT-116 colon, in the experiment with SF-268 CNS, with SK-MEL-2 melanoma and in the experiment on DU-145 prostate was above 100 µM in each case.
As for `O=S1(=O)c2cnccc2NC(=NCc2cccc3ccccc23)N1c1ccccc1`, the TGI in the experiment with SF-539 CNS, in the experiment with LOX IMVI melanoma, in the experiment with ACHN renal, in the experiment with NCI/ADR-RES ovarian, with OVCAR-3 ovarian and with OVCAR-5 ovarian was above 100 µM each time. Also, the TGI was above 100 µM in the experiment with HCT-116 colon, above 100 µM with SF-268 CNS, above 30.5 µM with SK-MEL-2 melanoma and above 100 µM in the experiment with DU-145 prostate.
Take `CC1(C)C(=O)N(O)C(C)(C)N1O`: the TGI in the experiment with SF-539 CNS, with LOX IMVI melanoma, with ACHN renal, in the experiment on NCI/ADR-RES ovarian, with OVCAR-3 ovarian and with OVCAR-5 ovarian was above 10 µM throughout. Further, the TGI in the experiment on HCT-116 colon, in the experiment with SF-268 CNS, with SK-MEL-2 melanoma and in the experiment on DU-145 prostate was above 10 µM throughout.
With `O=c1n(/N=C/c2ccccc2)c(=O)n2n1C1C=CC2CC1`, the TGI in the experiment with SF-539 CNS, with LOX IMVI melanoma, in the experiment with ACHN renal, in the experiment with NCI/ADR-RES ovarian, with OVCAR-3 ovarian and with OVCAR-5 ovarian was above 100 µM each time. Besides, the TGI in the experiment with HCT-116 colon, in the experiment on SF-268 CNS, in the experiment with SK-MEL-2 melanoma and in the experiment on DU-145 prostate was above 100 µM throughout.
Take `COc1cc2cc(C(=O)N3CC(CCl)c4c3cc(NC(=O)C(C)(C)c3ccccc3[N+](=O)[O-])c3ccccc43)[nH]c2c(OC)c1OC` (stereo unspecified): the GI50 with SF-539 CNS is 6.55 µM; in the experiment on ACHN renal, 2.63 µM; in the experiment on NCI/ADR-RES ovarian it was 11.3 µM; in the experiment with OVCAR-5 ovarian, 119 µM; in the experiment on SF-268 CNS, 19.5 µM; with SK-MEL-2 melanoma, 110 µM. Besides, the TGI in the experiment with SF-539 CNS was 14.5 µM and 74.9 µM; with LOX IMVI melanoma it was 6.86 µM; in the experiment with OVCAR-3 ovarian, 222 µM; in the experiment on HCT-116 colon it was above 600 µM; with DU-145 prostate, 28.2 µM.
As to `Clc1cccc(Cl)c1C=NC12CC3CC(CC(C3)C1)C2`, the TGI with SF-539 CNS, in the experiment on LOX IMVI melanoma, in the experiment on ACHN renal, in the experiment on NCI/ADR-RES ovarian, with OVCAR-3 ovarian and in the experiment on OVCAR-5 ovarian was above 10 µM in each case. In addition, the TGI in the experiment on HCT-116 colon, in the experiment with SF-268 CNS, in the experiment with SK-MEL-2 melanoma and in the experiment with DU-145 prostate was above 10 µM each time.
Consider `O=C(O)c1c[nH]c2c(Sc3ccccc3)nccc2c1=O`, for which the TGI in the experiment with SF-539 CNS, in the experiment on LOX IMVI melanoma, in the experiment with ACHN renal, with NCI/ADR-RES ovarian, in the experiment with OVCAR-3 ovarian and with OVCAR-5 ovarian was above 100 µM in each case. Also, the TGI in the experiment with HCT-116 colon, in the experiment on SF-268 CNS, with SK-MEL-2 melanoma and in the experiment on DU-145 prostate was above 100 µM each time.
Take `c1csc(-c2cscc2-c2ccsc2)c1`: the TGI is above 93.5 µM in the experiment on SF-539 CNS; above 100 µM with LOX IMVI melanoma; above 100 µM in the experiment with ACHN renal; above 100 µM with NCI/ADR-RES ovarian; 56.1 µM in the experiment on OVCAR-3 ovarian; above 100 µM with OVCAR-5 ovarian. The TGI in the experiment on HCT-116 colon, with SF-268 CNS, with SK-MEL-2 melanoma and in the experiment on DU-145 prostate was above 100 µM throughout.
